Where “and” joins values, the source holds several entries; their conditions need not be identical. Equal values may be shown once. Each block holds one compound with its values, some of them ahead of it.
Test system: MPNST multicellular tumor spheroids, viability % test/control
Assay: Anticancer human tumor MPNST cell line growth inhibition;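 also: spheroids exposed to agents for seven days after three days of growth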;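 as to viability, T/C: luminescence signal used as surrogate for viable cell amount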
Conditions: for viability, T/C: stronger effect = lower value
In short: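 Complex spheroids of malignant cells with endothelial cells and mesenchymal stem cells; agents alone or combined, from near clinical Cmax (or 10 microM if unknown) down in half-log steps, 0.25% DMSO final.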

[1] = curve of first compound, second compound 0.003 µM
[2] = curve of first compound, second compound 0.00949 µM
[3] = curve of first compound, second compound 0.03 µM
[4] = curve of first compound, second compound 0.0949 µM
[5] = curve of first compound, second compound 0.3 µM
[6] = second compound 0.003 µM, first compound 0.0316 µM
[7] = second compound 0.003 µM, first compound 0.1 µM
[8] = second compound 0.003 µM, first compound 0.316 µM
[9] = second compound 0.003 µM, first compound 1 µM
[10] = second compound 0.003 µM, first compound 3.16 µM
[11] = second compound 0.003 µM, first compound 10 µM
[12] = second compound 0.00949 µM, first compound 0.0316 µM
[13] = second compound 0.00949 µM, first compound 0.1 µM
[14] = second compound 0.00949 µM, first compound 0.316 µM
[15] = second compound 0.00949 µM, first compound 1 µM
[16] = second compound 0.00949 µM, first compound 3.16 µM
[17] = second compound 0.00949 µM, first compound 10 µM
[18] = second compound 0.03 µM, first compound 0.0316 µM
[19] = second compound 0.03 µM, first compound 0.1 µM
[20] = second compound 0.03 µM, first compound 0.316 µM
[21] = second compound 0.03 µM, first compound 1 µM
[22] = second compound 0.03 µM, first compound 3.16 µM
[23] = second compound 0.03 µM, first compound 10 µM
[24] = second compound 0.0949 µM, first compound 0.0316 µM
[25] = second compound 0.0949 µM, first compound 0.1 µM
[26] = second compound 0.0949 µM, first compound 0.316 µM
[27] = second compound 0.0949 µM, first compound 1 µM
[28] = second compound 0.0949 µM, first compound 3.16 µM
[29] = second compound 0.0949 µM, first compound 10 µM
[30] = second compound 0.3 µM, first compound 0.0316 µM
[31] = second compound 0.3 µM, first compound 0.1 µM
[32] = second compound 0.3 µM, first compound 0.316 µM
[33] = second compound 0.3 µM, first compound 1 µM
[34] = second compound 0.3 µM, first compound 3.16 µM
[35] = second compound 0.3 µM, first compound 10 µM

Structure (SMILES): CC1COCCN1c1cc(-c2ccnn2C)c2ccnc(-c3ccn[nH]3)c2n1 (stereo not given) + CC[C@@]1(O)C(=O)OCc2c1cc1n(c2=O)Cc2cc3c(CN(C)C)c(O)ccc3nc2-1
IC50 [1]: 56.2 nM | IC50 [2]: 31.8 nM | IC50 [3]: < 31.6 nM | IC50 [4]: < 31.6 nM | IC50 [5]: < 31.6 nM | viability, T/C [6]: 51% | viability, T/C [7]: 49.7% | viability, T/C [8]: 39.3% | viability, T/C [9]: 34.1% | viability, T/C [10]: 25.9% | viability, T/C [11]: 26.9% | viability, T/C [12]: 50.3% | viability, T/C [13]: 44% | viability, T/C [14]: 42.2% | viability, T/C [15]: 34.6% | viability, T/C [16]: 26.5% | viability, T/C [17]: 23.8% | viability, T/C [18]: 48.7% | viability, T/C [19]: 44.5% | viability, T/C [20]: 48.4% | viability, T/C [21]: 34.6% | viability, T/C [22]: 26.1% | viability, T/C [23]: 23.5% | viability, T/C [24]: 45.8% | viability, T/C [25]: 43.8% | viability, T/C [26]: 41% | viability, T/C [27]: 28.3% | viability, T/C [28]: 26.9% | viability, T/C [29]: 21.8% | viability, T/C [30]: 41.1% | viability, T/C [31]: 39.9% | viability, T/C [32]: 34% | viability, T/C [33]: 28.1% | viability, T/C [34]: 21.2% | viability, T/C [35]: 17.5%

Structure (SMILES): CNCc1ccc(-c2cc(-c3nc(-c4ccc(S(=O)(=O)C(C)C)cc4)cnc3N)on2)cc1 + Cn1nnc2c(C(N)=O)ncn2c1=O
IC50 (curve of first compound, second compound 1 µM): > 3000 nM | IC50 (curve of first compound, second compound 3.16 µM): > 3000 nM | IC50 (curve of first compound, second compound 10 µM): > 3000 nM | IC50 (curve of first compound, second compound 31.6 µM): > 3000 nM | IC50 (curve of first compound, second compound 100 µM): > 3000 nM | viability, T/C (second compound 1 µM, first compound 0.00949 µM): 110% | viability, T/C (second compound 1 µM, first compound 0.03 µM): 102% | viability, T/C (second compound 1 µM, first compound 0.0949 µM): 83% | viability, T/C (second compound 1 µM, first compound 0.3 µM): 77.9% | viability, T/C (second compound 1 µM, first compound 0.949 µM): 63.1% | viability, T/C (second compound 1 µM, first compound 3 µM): 63.8% | viability, T/C (second compound 3.16 µM, first compound 0.00949 µM): 125% | viability, T/C (second compound 3.16 µM, first compound 0.03 µM): 120% | viability, T/C (second compound 3.16 µM, first compound 0.0949 µM): 97.9% | viability, T/C (second compound 3.16 µM, first compound 0.3 µM): 75.3% | viability, T/C (second compound 3.16 µM, first compound 0.949 µM): 64.8% | viability, T/C (second compound 3.16 µM, first compound 3 µM): 61.1% | viability, T/C (second compound 10 µM, first compound 0.00949 µM): 95.6% | viability, T/C (second compound 10 µM, first compound 0.03 µM): 114% | viability, T/C (second compound 10 µM, first compound 0.0949 µM): 98.5% | viability, T/C (second compound 10 µM, first compound 0.3 µM): 74.8% | viability, T/C (second compound 10 µM, first compound 0.949 µM): 71.8% | viability, T/C (second compound 10 µM, first compound 3 µM): 69.5% | viability, T/C (second compound 31.6 µM, first compound 0.00949 µM): 105% | viability, T/C (second compound 31.6 µM, first compound 0.03 µM): 81.1% | viability, T/C (second compound 31.6 µM, first compound 0.0949 µM): 79.8% | viability, T/C (second compound 31.6 µM, first compound 0.3 µM): 66.6% | viability, T/C (second compound 31.6 µM, first compound 0.949 µM): 58% | viability, T/C (second compound 31.6 µM, first compound 3 µM): 64.3% | viability, T/C (second compound 100 µM, first compound 0.00949 µM): 92.1% | viability, T/C (second compound 100 µM, first compound 0.03 µM): 95.7% | viability, T/C (second compound 100 µM, first compound 0.0949 µM): 83% | viability, T/C (second compound 100 µM, first compound 0.3 µM): 61.4% | viability, T/C (second compound 100 µM, first compound 0.949 µM): 58.5% | viability, T/C (second compound 100 µM, first compound 3 µM): 61.7%

Structure (SMILES): CC(C)n1c(=O)n(C)c2cnc3cc(F)c(-c4ccc(OCCCN5CCCCC5)nc4)cc3c21 + CC[C@@]1(O)C(=O)OCc2c1cc1n(c2=O)Cc2cc3c(CN(C)C)c(O)ccc3nc2-1
IC50 [1]: 6260 nM | IC50 [2]: < 31.6 nM | IC50 [3]: < 31.6 nM | IC50 [4]: < 31.6 nM | IC50 [5]: < 31.6 nM | viability, T/C [6]: 65.9% | viability, T/C [7]: 52% | viability, T/C [8]: 79.9% | viability, T/C [9]: 97.3% | viability, T/C [10]: 59.6% | viability, T/C [11]: 38.8% | viability, T/C [12]: 46.8% | viability, T/C [13]: 41.3% | viability, T/C [14]: 50.5% | viability, T/C [15]: 41.3% | viability, T/C [16]: 50.3% | viability, T/C [17]: 34.6% | viability, T/C [18]: 35.4% | viability, T/C [19]: 33.4% | viability, T/C [20]: 38.9% | viability, T/C [21]: 44.5% | viability, T/C [22]: 44.1% | viability, T/C [23]: 31.8% | viability, T/C [24]: 34.6% | viability, T/C [25]: 35.2% | viability, T/C [26]: 35.5% | viability, T/C [27]: 39.8% | viability, T/C [28]: 37.8% | viability, T/C [29]: 32.6% | viability, T/C [30]: 30.2% | viability, T/C [31]: 29% | viability, T/C [32]: 31.4% | viability, T/C [33]: 34.9% | viability, T/C [34]: 36.5% | viability, T/C [35]: 29.1%

Structure (SMILES): CC(C)n1c(=O)n(C)c2cnc3cc(F)c(-c4ccc(OCCCN5CCCCC5)nc4)cc3c21
viability, T/C (compound 0.0316 µM): 116% and 75.2% and 95.3% | viability, T/C (compound 0.1 µM): 92% and 92.2% and 75.8% | viability, T/C (compound 0.316 µM): 105% and 84.5% and 144% | viability, T/C (compound 1 µM): 93.2% and 88.2% and 84.2% | viability, T/C (compound 3.16 µM): 92.5% and 85.4% and 72.3% | viability, T/C (compound 10 µM): 63.2% and 56.1% and 54.5% | IC50 (curve of compound): > 10000 nM

IC50 (compound alone, run of 11/07/2019): > 100000 nM and 30700 nM
Structure (SMILES): Cn1nnc2c(C(N)=O)ncn2c1=O

Structure (SMILES): COc1ccc([C@@H](O)c2cc(-c3ncnc4cc(N5CCOCC5)ccc34)c(F)cc2Cl)nn1 + COc1cc2c(cc1O)CCNC21CSC2c3c(OC(C)=O)c(C)c4c(c3C(COC1=O)N1C(O)C3Cc5cc(C)c(OC)c(O)c5C(C21)N3C)OCO4
IC50 (curve of first compound, second compound 30 pM): 171 nM | IC50 (curve of first compound, second compound 94.9 pM): 531 nM | IC50 (curve of first compound, second compound 0.0003 µM): 645 nM | IC50 (curve of first compound, second compound 0.000949 µM): 174 nM | IC50 [1]: < 31.6 nM | viability, T/C (second compound 30 pM, first compound 0.0316 µM): 97.1% | viability, T/C (second compound 30 pM, first compound 0.1 µM): 72% | viability, T/C (second compound 30 pM, first compound 0.316 µM): 24.1% | viability, T/C (second compound 30 pM, first compound 1 µM): 12.8% | viability, T/C (second compound 30 pM, first compound 3.16 µM): 5.82% | viability, T/C (second compound 30 pM, first compound 10 µM): 3.35% | viability, T/C (second compound 94.9 pM, first compound 0.0316 µM): 113% | viability, T/C (second compound 94.9 pM, first compound 0.1 µM): 74.7% | viability, T/C (second compound 94.9 pM, first compound 0.316 µM): 70.9% | viability, T/C (second compound 94.9 pM, first compound 1 µM): 39.6% | viability, T/C (second compound 94.9 pM, first compound 3.16 µM): 8.1% | viability, T/C (second compound 94.9 pM, first compound 10 µM): 3.63% | viability, T/C (second compound 0.0003 µM, first compound 0.0316 µM): 89.4% | viability, T/C (second compound 0.0003 µM, first compound 0.1 µM): 70.9% | viability, T/C (second compound 0.0003 µM, first compound 0.316 µM): 92.8% | viability, T/C (second compound 0.0003 µM, first compound 1 µM): 28.8% | viability, T/C (second compound 0.0003 µM, first compound 3.16 µM): 9.77% | viability, T/C (second compound 0.0003 µM, first compound 10 µM): 2.97% | viability, T/C (second compound 0.000949 µM, first compound 0.0316 µM): 84.4% | viability, T/C (second compound 0.000949 µM, first compound 0.1 µM): 48.4% | viability, T/C (second compound 0.000949 µM, first compound 0.316 µM): 55.4% | viability, T/C (second compound 0.000949 µM, first compound 1 µM): 14.4% | viability, T/C (second compound 0.000949 µM, first compound 3.16 µM): 11.7% | viability, T/C (second compound 0.000949 µM, first compound 10 µM): 0.94% | viability, T/C [6]: 15.7% | viability, T/C [7]: 16.1% | viability, T/C [8]: 8.56% | viability, T/C [9]: 4.27% | viability, T/C [10]: 2.63% | viability, T/C [11]: 0.51%

Structure (SMILES): [2H]c1nc(C)nc([2H])c1-c1cc(NC[C@@H](C)c2cccc3c(C(=O)NC)ccnc23)ncn1
viability, T/C (compound 0.0316 µM): 96.1% and 83.1% and 86.7% | viability, T/C (compound 0.1 µM): 77.8% and 109% and 75.6% | viability, T/C (compound 0.316 µM): 82.6% and 102% and 90.4% | viability, T/C (compound 1 µM): 101% and 103% and 119% | viability, T/C (compound 3.16 µM): 110% and 104% and 71.3% | viability, T/C (compound 10 µM): 101% and 100% and 67.4% | IC50 (curve of compound): > 10000 nM

Reference: PubChem BioAssay AID1845205 (Molecular Pharmacology Branch, DTP, NCI, 2023)
